From publication PMC12176101 (Drug Design, Development and Therapy, 2025)
Residues, ends and D or L forms follow the SMILES beside them.

target: AChE (Homo sapiens, UniProt P22303); test: In vitro anti-AChE assay; assay type: biochemical
Sequence (P22303 32-614): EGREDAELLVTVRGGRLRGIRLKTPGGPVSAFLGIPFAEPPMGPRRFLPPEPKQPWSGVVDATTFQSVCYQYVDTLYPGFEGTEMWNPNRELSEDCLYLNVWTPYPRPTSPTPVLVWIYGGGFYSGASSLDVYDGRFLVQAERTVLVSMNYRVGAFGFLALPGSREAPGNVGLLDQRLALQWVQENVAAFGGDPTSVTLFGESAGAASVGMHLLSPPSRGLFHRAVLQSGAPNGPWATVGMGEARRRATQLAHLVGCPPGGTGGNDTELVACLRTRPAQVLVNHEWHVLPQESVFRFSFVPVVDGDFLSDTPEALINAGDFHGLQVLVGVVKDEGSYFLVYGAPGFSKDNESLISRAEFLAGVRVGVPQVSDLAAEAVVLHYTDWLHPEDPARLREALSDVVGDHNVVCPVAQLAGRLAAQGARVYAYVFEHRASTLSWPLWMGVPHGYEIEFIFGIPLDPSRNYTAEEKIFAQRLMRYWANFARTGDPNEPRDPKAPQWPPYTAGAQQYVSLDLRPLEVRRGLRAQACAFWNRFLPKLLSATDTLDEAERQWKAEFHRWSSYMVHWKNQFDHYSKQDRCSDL

| Compound | IC50 [µM] |
| --- | --- |
| CC[C@H](C)[C@H](NC(=O)[C@H](Cc1c[nH]c2ccccc12)NC(=O)[C@@H](N)C(C)C)C(=O)N[C@H](C(=O)NCC(=O)N[C@@H](Cc1ccccc1)C(=O)N[C@@H](CCC(=O)O)C(=O)N[C@@H](Cc1c[nH]cn1)C(=O)N[C@@H](CCSC)C(=O)O)[C@@H](C)CC [VWIIGFEHM] (H-VWIIGFEHM-OH) | 3.9 |
| CSCC[C@H](NC(=O)[C@@H](NC(=O)[C@H](Cc1c[nH]cn1)NC(=O)[C@@H](N)CC(C)C)[C@@H](C)O)C(=O)N[C@@H](CCC(=O)O)C(=O)N[C@@H](CC(C)C)C(=O)N[C@@H](CC(C)C)C(=O)O [LHTMELL] (H-LHTMELL-OH) | 10.6 |
| CC[C@H](C)[C@H](NC(=O)[C@@H](N)Cc1c[nH]c2ccccc12)C(=O)NCC(=O)N[C@@H](CS)C(=O)N[C@@H](Cc1c[nH]c2ccccc12)C(=O)N[C@@H](CC(=O)O)C(=O)O [WIGCWD] (H-WIGCWD-OH) | 1.9 |
| CC(C)C[C@H](NC(=O)[C@H](Cc1c[nH]cn1)NC(=O)[C@@H](N)Cc1c[nH]c2ccccc12)C(=O)N[C@@H](CS)C(=O)N[C@H](C(=O)N[C@@H](CC(C)C)C(=O)N[C@@H](Cc1ccccc1)C(=O)O)C(C)C [WHLCVLF] (H-WHLCVLF-OH) | 1.5 |
